A short description of the series: Zeta potential (surface potential) measurement after each polyelectrolyte coating. Type of series: physicochemical. The method, then: 5 mg paclitaxel or atavoquone was dissolved in 5 mL of a 60% ethanol/water or a 60% acetone/water solution in a glass tube. This solution was ultrasonicated at 100% amplitude for 2 min, and then 1 mL of a 5 mg/mL polylysine, polyethylenimine, or protomine sulphate solution was added. This was then ultrasonicated for 1 min while adding water at certain speeds and volumes (e.g., 1 mL/min until 5 mL to 10 mL was reached). This was then ultrasonicated for another 30 min. After sonication, the zeta potential of the sample was measured to assure recharging of the formed paclitaxel nanocrystals to positive. Layer-by-layer (LbL) coating with 2 layers of BSA/PS (bovine serum albumin/protamine sulfate) was performed (as described in, e.g., WO2009/012303), followed by SEM readings and measurement of zeta potential.
After each coating, a sample was taken and surface potential was measured using a Zeta potential analyzer.
PAH and PSS were alternately added to the curcumin nanoparticles using the LbL procedure. […] PAH adsorption during nanoparticles synthesis converted the potential to +30±2 mV. Next, anionic PSS adsorption changed the potential to −53±2 mV, followed by +19±2 mV with the addition of PAH, and again to −50±2 mV with the addition of PSS. Therefore, multiple layers of polycations and polyanions, i.e., (PAH/PSS)2, were coated onto the curcumin nanoparticles.

With `COc1cc(/C=C/C(=O)CC(=O)/C=C/c2ccc(O)c(OC)c2)ccc1O` [bare curcumin microparticles, curcumin], the zeta potential (bare, initial potential, FIG. 7) is reported as −50±2 mV. Consider `CC(=O)O[C@H]1C(=O)[C@@]2(C)[C@H]([C@H](OC(=O)c3ccccc3)[C@]3(O)C[C@H](OC(=O)[C@H](O)[C@@H](NC(=O)c4ccccc4)c4ccccc4)C(C)=C1C3(C)C)[C@]1(OC(C)=O)CO[C@@H]1C[C@@H]2O` [paclitaxel], for which, under “initial paclitaxel compound, no coating, FIG. 4”, the zeta potential result is “about −60 mV”.
